# In the supplement of paper PMC10307832:
# Tests used:
# Experiment in all cases: relative viability (nuclei count vs DMSO), 5 days (fraction); higher = more cells survive
# [1] = compound: CC1=CN=C(N=C1C2=CNC(=C2)C(=O)N[C@H](CO)C3=CC(=CC=C3)Cl)NC4=C(C=C(C=C4)F)Cl [VX-11e] + COc1cc2c(Oc3ccc(NC(=O)C4(C(=O)Nc5ccc(F)cc5)CC4)cc3F)ccnc2cc1OCCCN1CCOCC1 [Foretinib] (partner 0.25 µM)
# Procedure, shortened: (§1)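 Lung cancer cell lines were pin-tool dosed in 1536-well plates on the day after seeding, with either a lone drug or a fixed anchor-drug dose plus five library-drug doses (not always all listed) in √10 steps. Nuclei were counted on 4× images after 5 days. Relative viability is the ratio of treated-well to vehicle-well nuclei counts, with each value a median of duplicate plates.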
# [2] = compound: CC1=CN=C(N=C1C2=CNC(=C2)C(=O)N[C@H](CO)C3=CC(=CC=C3)Cl)NC4=C(C=C(C=C4)F)Cl [VX-11e] + O=C(CCCCCCC(=O)Nc1ccccc1)NO [Vorinostat] (partner 1 µM)
# Procedure, shortened: as §1
# [3] = compound: CC1=CN=C(N=C1C2=CNC(=C2)C(=O)N[C@H](CO)C3=CC(=CC=C3)Cl)NC4=C(C=C(C=C4)F)Cl [VX-11e] + NC(=O)Nc1cc(-c2cccc(F)c2)sc1C(=O)N[C@H]1CCCNC1 [AZD7762] (partner 0.2 µM)
# Procedure, shortened: as §1
# [4] = compound: CC1=CN=C(N=C1C2=CNC(=C2)C(=O)N[C@H](CO)C3=CC(=CC=C3)Cl)NC4=C(C=C(C=C4)F)Cl [VX-11e] + CS(=O)(=O)N1CCN(Cc2cc3nc(-c4cccc5[nH]ncc45)nc(N4CCOCC4)c3s2)CC1 [Pictilisib] (partner 1 µM)
# Procedure, shortened: as §1
Cell Line,relative viability ([1]; first compound 0.04 µM),relative viability ([1]; first compound 0.1265 µM),relative viability ([1]; first compound 0.4 µM),relative viability ([1]; first compound 1.265 µM),relative viability ([1]; first compound 4 µM),relative viability ([2]; first compound 0.04 µM),relative viability ([2]; first compound 0.1265 µM),relative viability ([2]; first compound 0.4 µM),relative viability ([2]; first compound 1.265 µM),relative viability ([2]; first compound 4 µM),relative viability ([3]; first compound 0.04 µM),relative viability ([3]; first compound 0.1265 µM),relative viability ([3]; first compound 0.4 µM),relative viability ([3]; first compound 1.265 µM),relative viability ([3]; first compound 4 µM),relative viability ([4]; first compound 0.04 µM),relative viability ([4]; first compound 0.1265 µM),relative viability ([4]; first compound 0.4 µM),relative viability ([4]; first compound 1.265 µM),relative viability ([4]; first compound 4 µM)
NCI-H596,0.854,0.952,0.775,0.79,0.506,0.472,0.635,0.597,0.387,0.354,1.03,0.895,1.01,0.748,0.778,0.377,0.429,0.378,0.431,0.319
NCI-H2170,0.995,1.13,0.906,0.953,0.812,0.835,0.75,0.462,0.67,0.778,0.758,0.89,0.298,0.632,0.821,0.244,0.265,0.19,0.217,0.237
NCI-H3122,0.948,0.897,–,0.851,0.487,0.85,0.885,0.684,0.987,0.589,1.13,1.13,0.353,0.933,0.577,0.633,0.57,0.255,0.406,0.212
HCC-15,1.07,0.897,–,0.558,0.357,0.96,0.752,–,0.534,0.26,1.41,1.18,–,1.11,0.769,0.619,0.682,0.32,0.334,0.168
NCI-H1915,1.12,1.08,1.16,1.13,0.791,0.469,0.493,0.526,0.607,0.43,0.719,0.719,0.596,0.791,0.554,0.556,0.757,0.636,0.627,0.282
NCI-H1734,0.941,0.852,0.81,0.706,0.344,0.71,0.779,0.593,0.449,0.341,0.525,0.532,0.307,0.334,0.296,0.358,0.39,0.376,0.31,0.245
NCI-H2342,1.15,1.1,0.98,1.07,0.893,–,0.79,0.862,0.843,0.73,–,0.462,0.604,0.508,0.466,–,–,–,–,–
COR-L 105,1.39,1.1,0.963,0.562,0.653,0.756,0.857,0.731,0.741,0.418,–,–,–,–,–,0.341,0.41,0.362,0.29,0.322
RERF-LC-KJ,1.01,0.886,0.901,0.856,0.813,0.7,0.653,0.586,0.594,0.623,0.572,0.876,0.498,0.903,0.839,0.63,0.521,0.614,0.641,0.484
NCI-H2228,0.79,0.936,–,0.482,0.275,0.646,0.66,0.617,0.58,0.399,–,–,–,–,–,0.355,0.464,0.0994,0.854,0.188
NCI-H1944,0.896,0.851,–,0.806,0.505,0.492,0.506,0.441,0.478,0.408,0.513,0.522,0.255,0.449,0.37,0.301,0.308,0.306,0.309,0.281
NCI-H1648,–,–,–,–,–,–,0.317,0.639,0.31,0.291,–,0.639,0.641,0.703,0.733,–,–,–,–,–
NCI-H647,1.26,1.12,1.19,1.05,0.405,0.501,0.655,0.637,0.496,0.339,0.347,0.573,–,0.426,0.215,0.32,0.26,0.122,0.381,0.132
A549,1.02,0.973,0.922,0.321,0.0913,–,–,–,–,–,–,–,–,–,–,0.481,0.475,0.316,0.0889,0.0408
LC-2-ad,0.883,0.822,0.983,0.747,0.673,0.84,0.695,0.733,0.456,0.376,0.913,0.844,0.798,0.458,0.468,0.398,0.432,0.349,0.247,0.163
EMC-BAC-2,1.05,0.921,1.08,0.982,0.697,0.404,0.45,1.07,0.511,0.315,1.2,0.96,1.13,1,0.855,0.468,0.488,0.516,0.432,0.337
EBC-1,0.104,0.107,0.0992,0.111,0.109,–,–,–,–,–,–,–,–,–,–,0.494,0.436,0.378,0.201,0.162
SW 900,0.851,0.943,0.969,0.794,0.519,0.348,0.507,–,0.276,0.323,0.439,0.529,–,0.265,0.411,–,–,–,–,–
NCI-H1792,–,–,–,–,–,–,–,–,–,–,–,0.623,–,0.413,0.0597,0.299,0.2,0.319,0.27,0.0521
